{"source": "patent US20110039877A1", "about": "“USE OF 3, 11B-CIS-DIHYDROTETRABENAZINE IN THE TREATMENT OF MULTIPLE SCLEROSIS AND AUTOIMMUNE MYELITIS” (Biovail Laboratories International (Barbados) S.R.L., priority 2007, published 2011)", "key": {"[1]": {"test_system": "DAT and VMAT2 in brain", "conditions": "conscious rat brain; cited from earlier work"}, "[2]": {"test_system": "experimental autoimmune encephalomyelitis (EAE) induced with mouse spinal cord homogenate in CFA", "assay": "Experimental autoimmune encephalomyelitis (EAE) model of multiple sclerosis", "type": "in vivo, Biozzi mice", "conditions": "for protection against EAE (clinical disease score, weight loss): days -1 to 10, Biozzi mice; for overall effect on EAE disease: general statement, no dose given", "procedure": "Groups of 10 Biozzi mice aged between 5 and 8 weeks of age were challenged in the flank with mouse spinal cord homogenate (SCH) in complete Freund's adjuvant (CFA) in order to induce EAE. Treatments were given according to the schedule below. Treatment (n=8 per group) Group A—vehicle control Group B—RU350 30 mg/kg days −1 to 10 once daily by oral gavage Group C—RU350 10 mg/kg days −1 to 10 twice daily by oral gavage Group D—Positive control drug A 20 mg/ml solution of SCH in PBS was prepared and mixed in an equal volume with CFA. The mixture was sonicated in a Branson 1200 sonicator for 15 minutes and then homogenised for three minutes. An amount of 1 mg in 100 μl was administered per mouse by subcutaneous injection at the base of tail. In addition, mice were given 200 ng pertussis toxin in 0.5 ml by intraperitoneal (ip) injection on day 0 and again 48 hours later. Mice were treated according to the outline above from day −1 to day 10. The compound of formula (Ia) (i.e. RUS350) was prepared daily by dissolving 15 mg of the compound (stored at −20° C.) in sterile distilled water to give 6 mg/ml solution. A dose of 100 μl was given by oral gavage daily to the group B mice (equivalent to 30 mg/kg per 20 g mouse). For group C mice, 1 ml of the […] stock was further diluted 1:3 in sterile distilled water, and a dose of 100 μl was given orally twice daily (equivalent to 2×10 mg/kg per 20 g mouse). Distilled water served as the vehicle control for the mice in group A. Group D mice were given a dose of 5 mg/kg dexamethasone (100 μg in 100 μl per 20 g mouse) on days 3-7 and days 10-12. Moribund animals were euthanised according to Home Office regulations and all remaining animals were euthanized at day 28 post-induction. At termination, brains and spinal cords were taken from all animals and fixed for histopathology examination. Mice were weighed prior to EAE induction (Day 0) and then daily from day 5 until termination. Clinical disease was monitored from day 5 and scored according the following system: [table]"}}, "note": "“Also recorded” adds a separate entry of the source."}
{"smiles": "COc1cc2c(cc1O[11CH3])CCN1C[C@H](CC(C)C)[C@@H](O)C[C@@H]21", "note": "[(−)-α-[^11C]dihydrotetrabenazine]", "values": [{"measurement": "distribution of radio-labelled isomer in the brain", "setting": "[1]", "result": "almost uniformly distributed in the brain"}]}
{"smiles": "COc1cc2c(cc1O[11CH3])CCN1C[C@@H](CC(C)C)[C@H](O)C[C@H]21", "note": "(single isomer, unassigned) [(+)-α-[^11C]dihydrotetrabenazine]", "values": [{"measurement": "distribution of radio-labelled isomer in the brain", "setting": "[1]", "result": "accumulated in regions of the brain associated with higher concentrations of the neuronal membrane dopamine transporter (DAT) and the vesicular monoamine transporter (VMAT2)"}]}
{"smiles": "C[C@@H]1C[C@H]2[C@@H]3CCC4=CC(=O)C=C[C@]4(C)[C@@]3(F)[C@@H](O)C[C@]2(C)[C@@]1(O)C(=O)CO", "note": "[steroid, dexamethasone, reference compound]", "values": [{"measurement": "inhibition of severe EAE associated with weight loss", "setting": "[2]; positive control, 5 mg/kg on days 3-7 and days 10-12, Biozzi mice", "result": "markedly inhibited this effect"}]}
{"smiles": "COc1cc2c(cc1OC)[C@H]1C[C@H](O)[C@@H](CC(C)C)CN1CC2", "note": "(single isomer, unassigned) [compound of formula (Ia)]", "values": [{"measurement": "protection against EAE (clinical disease score, weight loss)", "setting": "[2]; 10 mg/kg twice daily by oral gavage", "result": "very high level of protection"}, {"measurement": "protection against EAE (clinical disease score, weight loss)", "setting": "[2]; 30 mg/kg once daily by oral gavage", "result": "moderate degree of protection"}, {"measurement": "overall effect on EAE disease", "setting": "[2]", "result": "profound effect on the disease; also recorded: levels of protection similar to that provided by treatment with steroids"}, {"measurement": "overall effect on EAE disease", "setting": "[2]; listed as formula (Ia)", "result": "inhibits the development of autoimmune encephalomyelitis"}]}
